Results: article PMC7465040, “Cytotoxic and Anti-Plasmodial Activities of Stephania dielsiana Y.C. Wu Extracts and the Isolated Compounds” (Molecules, 2020)
Where two headings read alike, the source gives them in different places.

What was measured:
HeLa = experiment: SRB cell proliferation assay, HeLa; type: cell-based, human; conditions: for IC50: 72 h, Table 2A, SRB, read-out: IC50 (μM ± SD) HeLa
Protocol: (§1) In vitro anticancer study: The in vitro anti-proliferative tests were carried out as described previously, using aliquots of the cell lines used therein. Briefly, HeLa, MDA-MB-231 and MDA-MB-468, MCF7, and 184B5 and MCF 10A cell lines were purchased from ATCC. The identity of the cell lines presented in this study were verified by short tandem repeat profiling by Genetica DNA Laboratories (www.celllineauthentication.com) (April 8, 2015). MCF10A was grown in DMEM F12 medium supplemented with 0.02 μg/mL epidermal growth factor, 10% FBS, 10 μg/mL insulin and […] hydrocortisone. MDA-MB-468 were grown in DMEM supplemented with 10% FBS and antibiotics cocktail (100 μg/mL streptomycin, 100 units/mL penicillin and 250 ng/mL amphotericin B). SRB cell proliferation assays were carried out as previously described, with some minor modifications. The concentration range for all tested cell lines were from 100–0.39 μg/mL for extracts and 100–0.39 μM for pure compounds. […] All experiments were carried out at least twice.

MDA-MB-231 = experiment: SRB cell proliferation assay, MDA-MB-231; type: cell-based, human
Protocol: as §1

MDA-MB-468 = experiment: SRB cell proliferation assay, MDA-MB-468; type: cell-based, human
Protocol: as §1

MCF 10A = experiment: SRB cell proliferation assay, MCF10A non-cancer cells; type: cell-based; conditions: Homo sapiens, read-out: IC50 (μM ± SD) MCF 10A
Protocol: as §1

[1] = test system: chloroquine-susceptible 3D7 P. falciparum strain; experiment: In vitro anti-plasmodial assay (HRP2 ELISA), 3D7; type: cell-based, Plasmodium falciparum; conditions: for IC50: 72 h, HRP2 ELISA, mean of five experiments, read-out: IC50 (μM ± SD) 3D7
Protocol: (§2) Parasites were grown in A-positive human blood (Etablissement Français du Sang, Marseille, France) under controlled atmospheric conditions that consisted of 10% O2, 5% CO2, and 85% N2 at 37 °C with a humidity of 95%.
(§3) In vitro anti-plasmodial assay: The two P. falciparum strains 3D7 and W2 were synchronized twice with sorbitol before use. The clonality of these strains was verified both in our laboratory and in an independent laboratory from the Worldwide Anti-malarial Resistance Network (WWARN) by PCR genotyping of the polymorphic genetic markers msp1 and msp2 and microsatellite loci. The compounds were re-suspended in methanol or DMSO 5% (v/v) and then diluted in methanol to obtain final concentrations ranging from 0.008 to 500 μg/mL (final concentration of 0.5% of methanol or DMSO). […] The plates were incubated for 72 h at 37 °C in controlled atmospheric conditions 5% CO2, 10% O2, and […]. After thawing the plates, haemolysed cultures were homogenized by vortexing the plates. Both the success of the drug susceptibility assay and the appropriate volume of haemolysed culture to use for each assay were determined for each clinical isolate during a preliminary HRP2 ELISA. Both the pre-test and subsequent ELISA assays were performed using a commercial kit (Malaria Ag Celisa, ref KM2159, Cellabs PTY LTD, Brookvale, Australia) according to the manufacturer’s recommendation. The optical density (OD) of each sample was measured with a spectrophotometer (Safire 2, Tecan, Lyon, France). […] The anti-plasmodial in vitro assay was performed five times for each product. The IC50 values represented the mean value calculated from five experiments. According to Hout, a selectivity index (SI) was based on the ratio between anti-parasitic and cytotoxic activities. In the case of our study, a SI was calculated between non-tumorigenic cell line 184B5 and parasites 3D7 or W2 and/or MCF10A and these two parasites.

Aurora A = target: T1, Aurora A (Homo sapiens, UniProt O14965); experiment: In vitro kinase assay (ADP-Glo), Aurora A; type: biochemical; conditions: ± standard deviation, n = 2
T1 construct: purchased Promega
T1 sequence (O14965 1-403): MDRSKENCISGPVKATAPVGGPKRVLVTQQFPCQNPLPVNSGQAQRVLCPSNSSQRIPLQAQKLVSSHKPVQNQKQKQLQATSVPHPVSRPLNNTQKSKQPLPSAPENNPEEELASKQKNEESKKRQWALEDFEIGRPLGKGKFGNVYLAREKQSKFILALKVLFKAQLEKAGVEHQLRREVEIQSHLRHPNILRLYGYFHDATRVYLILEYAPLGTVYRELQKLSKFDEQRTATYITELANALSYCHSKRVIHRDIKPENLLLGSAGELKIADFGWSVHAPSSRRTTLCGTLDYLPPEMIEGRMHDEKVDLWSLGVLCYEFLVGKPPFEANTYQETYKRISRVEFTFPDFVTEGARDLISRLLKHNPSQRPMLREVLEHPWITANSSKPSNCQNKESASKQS
Protocol: (§4) In vitro kinase assay: The Aurora A and B kinase assays were carried out using the Promega ADP-Glo based Kinase Activity Profiling system. The protocols for the Aurora A/(Myelin Basic Protein (MBP) and Aurora B/MBP assay kits were according to those recommended by the suppliers. The concentration range used was from 20 μM–39.1 nM in 384-well plates. The luminescent output from the kinase assay was read on a Biotek Synergy H4 plate reader.

Aurora B = target: T2, Aurora B (Homo sapiens, UniProt Q96GD4); experiment: In vitro kinase assay (ADP-Glo), Aurora B; type: biochemical; conditions: ± standard deviation, n = 2
T2 construct: purchased Promega
Protocol: as §4

[2] = test system: HeLa, MDA-MB231, MDA-MB-468, MCF7, 184B5 and MCF10A cell lines; experiment: SRB cell proliferation assay, whole panel of cell lines; type: cell-based, human; conditions: Homo sapiens; cancer and non-cancer cell lines; read-out: IC50 values, range over the cell lines examined
Protocol: as §1

[3] = test system: Plasmodium falciparum 3D7 and W2 strains; experiment: In vitro anti-plasmodial assay, both strains; type: cell-based
Protocol: as §2, §3

HeLa cells = experiment: Cell cycle analysis, propidium iodide flow cytometry; type: cell-based, human; conditions: asynchronous HeLa, 10 μM, 12–72 h
Protocol: Cell cycle analysis: Propidium iodide staining and flow cytometry analysis were carried out as described previously with minor modifications. Briefly, 250,000 HeLa cells (50,000 cells/mL) were treated with 10 μM oxostephanine (1) and harvested at the indicated time points. All experiments were carried out at least twice.

T2 sequence (Q96GD4 whole entry): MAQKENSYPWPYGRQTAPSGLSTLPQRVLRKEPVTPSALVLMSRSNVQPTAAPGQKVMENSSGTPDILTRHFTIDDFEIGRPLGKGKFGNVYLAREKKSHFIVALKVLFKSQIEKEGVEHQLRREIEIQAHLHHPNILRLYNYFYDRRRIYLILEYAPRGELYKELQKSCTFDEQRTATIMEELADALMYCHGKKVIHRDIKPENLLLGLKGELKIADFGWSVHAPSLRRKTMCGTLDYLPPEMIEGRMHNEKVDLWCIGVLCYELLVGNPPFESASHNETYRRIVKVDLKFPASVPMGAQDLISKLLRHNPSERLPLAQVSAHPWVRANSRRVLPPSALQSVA

Compound: COc1cccc2c1C(=O)c1nccc3cc4c(c-2c13)OCO4 [Oxostephanine 1, oxostephanine]
- IC50 (HeLa; Homo sapiens, HeLa): 1.73 µM
- IC50 (HeLa): 1.76 ± 0.2 µM
- Selectivity index (SI) 184B5 versus HeLa (HeLa; Table 2B, non-cancer 184B5 vs cancer HeLa): 0.94
- Selectivity index (SI) MCF10A versus HeLa (HeLa; Table 2B, non-cancer MCF10A vs cancer HeLa): 1.40
- Increase in effectiveness compared with stephanine (3), HeLa (HeLa; ratio of IC50): 2 fold
- IC50 (MDA-MB-231; Homo sapiens, MDA-MB-231, Table 2A, SRB, 72 h, read-out: IC50 (μM ± SD) MDA-MB-231): 2.67 ± 0.29 µM
- Selectivity index (SI) 184B5 versus MDA-MB-231 (MDA-MB-231; Table 2B, non-cancer 184B5 vs cancer MDA-MB-231): 0.62
- Selectivity index (SI) MCF10A versus MDA-MB-231 (MDA-MB-231; Table 2B, non-cancer MCF10A vs cancer MDA-MB-231): 0.93
- IC50 (MDA-MB-468; Homo sapiens, MDA-MB-468, Table 2A, SRB, 72 h, read-out: IC50 (μM ± SD) MDA-MB-468): 2.26 ± 0.54 µM
- Selectivity index (SI) 184B5 versus MDA-MB-468 (MDA-MB-468; Table 2B, non-cancer 184B5 vs cancer MDA-MB-468): 0.73
- Selectivity index (SI) MCF10A versus MDA-MB-468 (MDA-MB-468; Table 2B, non-cancer MCF10A vs cancer MDA-MB-468): 1.10
- IC50 (MCF 10A; Table 2A, SRB, 72 h): 2.49 ± 0.11 µM
- IC50 (MCF 10A; Table 3, non-cancer cell line): 2.49 ± 0.11 µM
- IC50 [1]: 63.9 ± 18.4 µM
- IC50 ([1]; Plasmodium falciparum, 3D7, 72 h): 63.9 to 276 µM
- SI 3D7 184B5 ([1]; Table 3, selectivity index between 184B5 and parasites 3D7): 0.026
- SI 3D7 MCF10A ([1]; Table 3, selectivity index between MCF10A and parasites 3D7): 0.039
- IC50 (Aurora A): 422 ± 130 nM
- IC50 (Aurora B): 952 ± 467 nM
- IC50 [2]: 1660 to 4350 nM
- Anti-plasmodial activity against both 3D7 and W2 (in words) [3]: not active
- Cell cycle distribution (HeLa cells): induces a transient G2/M arrest and apoptotic cell death
